10 compounds from ChEMBL document CHEMBL1799910, “Optimization of 1,2,3,4-tetrahydroacridin-9(10H)-ones as antimalarials utilizing structure-activity and structure-property relationships” (J Med Chem, 2011) can be followed below.

By EC50 is commonly meant the concentration giving half of the maximal effect. Read a low EC50 as a more potent agent. Broadly, the solubility is the dissolved amount per volume that the medium holds. By logD is commonly meant lipophilicity at a set pH, counting ionised and neutral species. By half-life is commonly meant the time in which the quantity being followed falls by half. High values mean slow loss, low ones fast loss.

Molecules are shown by their SMILES. Converted amounts (≈) assume the structure as drawn.

Data set [1] concerns Plasmodium falciparum. Kind of data set: Antimalarial activity against chloroquine and pyrimethamine-resistant Plasmodium falciparum W2 infected in human A positive erythrocytes after 72 hrs by SYBR Green I assay. Conditions: W2, 72 h. The format is functional, organism-based.
Data set [2] has as its system Plasmodium falciparum. Briefly: Antimalarial activity against chloroquine, mefloquine, pyrimethamine and atovaquone-resistant Plasmodium falciparum TM90-C2B infected in human A positive erythrocytes after 72 hrs by SYBR Green I assay. Type of data set: functional, organism-based.
Data set [3] relates to Plasmodium falciparum. Briefly: Resistance index, ratio of EC50 for chloroquine, mefloquine, pyrimethamine and atovaquone-resistant Plasmodium falciparum TM90-C2B to EC50 for chloroquine and pyrimethamine-resistant Plasmodium falciparum W2. The format is functional.
In the next data set the test system is J774. Kind of data set: Cytotoxicity against mouse J774 cells after 72 hrs by Cell titer 96 aqueous one solution cell proliferation assay. The conditions noted are these: J774, 72 h. Type of data set: cell-based.
A short description of data set [4]: Aqueous solubility of compound at pH 7.4 by HPLC analysis. Conditions: buffer.
Data set [5] is described as follows: Permeability of the compound by PAMPA method at pH 7.4. Type of data set: ADME. Conditions: read-out: permeability.
The nature of data set [6]: Partition coefficient, log D of the compound at pH 7.4 by HPLC analysis. The conditions noted are these: octanol/water.
For a further data set, the system named is Liver. Briefly: (§1) Stability in mouse liver microsomes. The conditions noted are these: microsomes. The format is ADME, Microsome. (In general: Liver microsomes are vesicles of endoplasmic reticulum, rich in cytochrome P450 enzymes.)
Data set [7] can be described thus: Cytotoxicity index, ratio of EC50 for mouse J774 cells to EC50 for chloroquine, mefloquine, pyrimethamine and atovaquone-resistant Plasmodium falciparum TM90-C2B. Type of data set: cell-based. The conditions noted are these: read-out: Ratio EC50.
Data set [8] deals with Plasmodium falciparum. Briefly: Antimalarial activity against Plasmodium falciparum D6 infected in human A positive erythrocytes after 72 hrs by SYBR Green I assay. Type of data set: functional, organism-based. Conditions: D6, 72 h.
A short description of data set [9]: as §1. Type of data set: ADME, Microsome. Conditions: liver microsomes.

Regarding `O=c1c2c([nH]c3ccc(-c4ccc(C(F)(F)F)cc4)cc13)CCCC2`, the EC50 in the data set with Plasmodium falciparum [1] is 58.2 nM; with Plasmodium falciparum [2], 44.9 nM; with J774 it was greater than 2000 nM. The “Ratio EC50” value in the data set with Plasmodium falciparum [3] came to 0.77. Further, in data set [4], the concentration in solution (solubility) was 2 µM (≈ 0.687 µg/mL). Besides, in [5], the Papp came to 36 ×10⁻⁶ cm/s. Further, in [6], the logD came to 3.6. Moreover, in the data set on Liver, the Stability result is given as “Stable”. For the same compound, the selectivity ratio in [7] was no less than 100.

For `O=C1CC(c2ccc(C(F)(F)F)cc2)Cc2c1c(=O)c1cc(Cl)ccc1n2O` (stereo not drawn) [FLOXACRINE], the EC50 turned out to be 478 nM in the data set with Plasmodium falciparum [1] and 270 nM in the data set on Plasmodium falciparum [8]. Moreover, the selectivity ratio in data set [7] is no less than 100.

Turning to `COc1cc2[nH]c3c(c(=O)c2cc1Cl)CS(=O)(=O)CC3`, the results for the concentration for a half-maximal effect (EC50) with Plasmodium falciparum [1], in the data set on Plasmodium falciparum [2] and in the data set with J774 were 4710 nM, 8410 nM and greater than 20000 nM, respectively. In the data set with Plasmodium falciparum [3], the “Ratio EC50” value is 1.76. In addition, the concentration in solution in data set [4] (solubility) came to 24 µM (≈ 7.53 µg/mL). This compound displayed a logD in [6] of 1. Also, the Stability entry with Liver is on record as “Stable”. The selectivity ratio in [7] is no less than 100.

Turning to `O=c1c2c([nH]c3cc(-c4ccc(C(F)(F)F)cc4)ccc13)CCCC2`, the EC50 in the data set with Plasmodium falciparum [1] is 34.9 nM; in the data set on Plasmodium falciparum [2] it was 8.7 nM; with J774, greater than 2000 nM. Besides, the “Ratio EC50” value with Plasmodium falciparum [3] worked out at 0.24. The solubility in data set [4] was determined as 3 µM (≈ 1.03 µg/mL). In [5], the Papp is 250 ×10⁻⁶ cm/s. In addition, in [6], the log distribution coefficient (logD) stood at 2.45. The Stability result with Liver is reported as “Stable”. Besides, in data set [7], the selectivity ratio is no less than 100.

For `Cc1ccc2c(=O)c3c([nH]c2c1)CCCC3`, the EC50 in the data set on Plasmodium falciparum [1] is 150 nM; with Plasmodium falciparum [2], 152 nM; with J774 it was greater than 40000 nM. The “Ratio EC50” value with Plasmodium falciparum [3] turned out to be 1.01. The compound further showed a solubility in data set [4] of 89 µM (≈ 19 µg/mL). Further, the Papp in data set [5] came to 27 ×10⁻⁶ cm/s. Also, the log distribution coefficient (logD) in [6] is 2. In data set [9], this compound came in with a half-life of 20.1 min. For the same compound, the selectivity ratio in data set [7] is no less than 100.

On to `COc1ccc2c(=O)c3c([nH]c2c1)CCCC3`, for which the EC50 in the data set on Plasmodium falciparum [1] is 89.9 nM; in the data set with Plasmodium falciparum [2], 99.9 nM; in the data set with J774, greater than 40000 nM. Further, the “Ratio EC50” value in the data set on Plasmodium falciparum [3] is on record as 1.11. For the same compound, the solubility in data set [4] came to 82 µM (≈ 18.8 µg/mL). Further, the Papp in [5] was 25 ×10⁻⁶ cm/s. The same compound returned a pH-dependent lipophilicity (logD) in data set [6] of 1.9. This compound also displayed a half-life in [9] of 6.8 min. Further, the selectivity ratio in data set [7] was no less than 100.

Turning to `O=c1c2c([nH]c3cc(-c4ccc(Oc5ccc(OC(F)(F)F)cc5)cc4)ccc13)CCCC2`, the concentration giving a half-maximal response (EC50) in the data set with Plasmodium falciparum [1] is 12.2 nM; in the data set on Plasmodium falciparum [2] it was 9.1 nM; with J774 it was greater than 100 nM. In addition, in the data set with Plasmodium falciparum [3], the “Ratio EC50” value is 0.75. This compound yielded a solubility in data set [4] of 0.1 µM (≈ 0.0451 µg/mL). Also, in [5], the Papp was 18 ×10⁻⁶ cm/s. Besides, the logD in [6] is 3.8. In [9], this compound came in with a half-life of 173 min. Also, in [7], the selectivity ratio is no less than 100.

For the compound `O=c1c2c([nH]c3ccc(-c4ccc(C(F)(F)F)cc4)cc13)CCSC2`, the concentration giving a half-maximal response (EC50) in the data set with Plasmodium falciparum [1] is 101 nM; with Plasmodium falciparum [2] it was 293 nM; in the data set with J774, greater than 10000 nM. For the same compound, the “Ratio EC50” value with Plasmodium falciparum [3] is reported as 2.9. The compound further gave a solubility in data set [4] of 10 µM (≈ 3.61 µg/mL). For the same compound, the Papp in data set [5] was less than 1 ×10⁻⁶ cm/s. Moreover, in data set [6], the log distribution coefficient (logD) was 2.4. This compound also yielded a half-life in data set [9] of 11.2 min. For the same compound, the selectivity ratio in [7] was no less than 100.

`O=c1c2c([nH]c3ccc(Cl)cc13)CCC(F)(F)C2`: the EC50 in the data set with Plasmodium falciparum [1] is 148 nM; in the data set on Plasmodium falciparum [2] it was 226 nM; in the data set on J774, greater than 2000 nM. Also, in the data set with Plasmodium falciparum [3], the “Ratio EC50” value worked out at 1.52. Moreover, the solubility in data set [4] came to 4 µM (≈ 1.08 µg/mL). Besides, the Papp in data set [5] amounted to 62 ×10⁻⁶ cm/s. In data set [6], this compound displayed a log distribution coefficient (logD) of 2. The compound further displayed a half-life in data set [9] of 40.8 min. In data set [7], the selectivity ratio was no less than 100.

Take `O=c1c2c([nH]c3ccccc13)CCCC2`: the EC50 in the data set on Plasmodium falciparum [1] is 719 nM; with Plasmodium falciparum [2], 325 nM; in the data set on J774, greater than 40000 nM. Also, the “Ratio EC50” value with Plasmodium falciparum [3] amounted to 0.45. Also, the solubility in data set [4] stood at 24 µM (≈ 4.78 µg/mL). Moreover, the Papp in data set [5] is 10 ×10⁻⁶ cm/s. The logD in data set [6] was 3. Further, the half-life in data set [9] worked out at 18.2 min. In addition, the selectivity ratio in data set [7] was no less than 100.
